Molecular target: T1, Melanin-concentrating hormone receptor 1 (Homo sapiens, UniProt Q99705)
Assay: Stimulation of IP3-coupled mobilization of calcium in HEK293 cells expressing MCH-R1
Type: functional, cell-based

T1 sequence (Q99705 whole entry): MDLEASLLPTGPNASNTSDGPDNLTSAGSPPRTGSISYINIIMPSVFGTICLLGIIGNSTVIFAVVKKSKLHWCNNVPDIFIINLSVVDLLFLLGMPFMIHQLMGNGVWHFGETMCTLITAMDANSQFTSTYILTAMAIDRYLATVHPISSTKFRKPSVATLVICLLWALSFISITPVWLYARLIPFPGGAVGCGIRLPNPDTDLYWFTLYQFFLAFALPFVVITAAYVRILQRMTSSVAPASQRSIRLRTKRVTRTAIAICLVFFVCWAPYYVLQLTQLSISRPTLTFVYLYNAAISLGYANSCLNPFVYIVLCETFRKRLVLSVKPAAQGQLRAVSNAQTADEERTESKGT

EC50	Compound
71 nM	CCCc1cc(N)c2cc(NC(=O)/C=C/c3ccc(SC)cc3)ccc2n1
250 nM	Nc1cc(C2CCC2)nc2ccc(NC(=O)/C=C/c3ccc(C(F)(F)F)cc3)cc12
630 nM	CCCc1cc(N)c2cc(NC(=O)/C=C/c3ccc(OC(C)=O)cc3)ccc2n1
6600 nM	Nc1cc(-c2ccccc2)nc2ccc(NC(=O)/C=C/c3ccc(Cl)cc3)cc12
160 nM	CCCc1cc(N)c2cc(NC(=O)/C=C/c3ccc(CC)cc3)ccc2n1
2500 nM	CCCc1cc(N2CCC2)c2cc(NC(=O)/C=C/c3ccc(C(F)(F)F)cc3)ccc2n1
310 nM	CCCc1cc(N)c2cc(NC(=O)c3ccc(-c4ccc(C(F)(F)F)cc4)cc3)ccc2n1
96 nM	Nc1cc(C2CCCCC2)nc2ccc(NC(=O)/C=C/c3ccc(C(F)(F)F)cc3)cc12
96 nM	CCCc1cc(N)c2cc(NC(=O)/C=C/c3ccc(Cl)cc3)ccc2n1
160 nM	CC(C)c1cc(N)c2cc(NC(=O)/C=C/c3ccc(C(F)(F)F)cc3)ccc2n1
110 nM	CCc1cc(N)c2cc(NC(=O)/C=C/c3ccc(C(F)(F)F)cc3)ccc2n1
310 nM	CCCc1cc(N)c2cc(NC(=O)/C=C/c3ccc([N+](=O)[O-])cc3)ccc2n1
40 nM	CCCc1cc(N)c2cc(NC(=O)/C=C/c3ccc(C(F)(F)F)cc3)ccc2n1 (stereo in doubt; form 2)
60 nM	CCCc1cc(N)c2cc(NC(=O)/C=C/c3ccc(C(F)(F)F)cc3)ccc2n1 (stereo in doubt; form 3)
3600 nM	CCCc1ccc(/C=C/C(=O)Nc2ccc3nc(CCC)cc(N)c3c2)cc1
520 nM	CCCc1cc(N)c2cc(NC(=O)/C=C/c3ccc(C(C)C)cc3)ccc2n1

EC50	Compound
90 nM	CCCCCc1cc(N)c2cc(NC(=O)/C=C/c3ccc(C(F)(F)F)cc3)ccc2n1
118 nM	CCCc1cc(N)c2cc(NC(=O)/C=C/c3ccc(-c4ccccc4)cc3)ccc2n1
2800 nM	CCCc1cc(N2CCCC2)c2cc(NC(=O)/C=C/c3ccc(C(F)(F)F)cc3)ccc2n1
140 nM	Cc1cc(N)c2cc(NC(=O)/C=C/c3ccc(C(F)(F)F)cc3)ccc2n1
270 nM	CCCc1cc(NC2CCC2)c2cc(NC(=O)/C=C/c3ccc(C(F)(F)F)cc3)ccc2n1
380 nM	CCCc1cc(N)c2cc(NC(=O)NCc3ccc(C(F)(F)F)cc3)ccc2n1
68 nM	Nc1cc(C2CCCC2)nc2ccc(NC(=O)/C=C/c3ccc(C(F)(F)F)cc3)cc12
740 nM	CCCCc1ccc(/C=C/C(=O)Nc2ccc3nc(CCC)cc(N)c3c2)cc1
280 nM	CCCc1cc(N)c2cc(NC(=O)/C=C/c3ccc(I)cc3)ccc2n1
44 nM	CCC(C)c1cc(N)c2cc(NC(=O)/C=C/c3ccc(C(F)(F)F)cc3)ccc2n1 (stereo unspecified)
1000 nM	CCCc1cc(N)c2cc(NCCCc3ccc(C(F)(F)F)cc3)ccc2n1
360 nM	CCCc1cc(OC)c2cc(NC(=O)/C=C/c3ccc(C(F)(F)F)cc3)ccc2n1
29 nM	CC(C)(C)c1cc(N)c2cc(NC(=O)/C=C/c3ccc(C(F)(F)F)cc3)ccc2n1
904 nM	CCCc1cc(N)c2cc(NC(=O)/C=C/c3ccc(Cl)cc3Cl)ccc2n1
300 nM	CCCc1cc(N(C)C)c2cc(NC(=O)/C=C/c3ccc(C(F)(F)F)cc3)ccc2n1

Molecular target: T1, Melanin-concentrating hormone receptor 1
Assay: Displacement of 125I-[Phe13,Tyr19]-MCH from human MCH-R1

IC50	Compound
9 nM	CCCc1cc(N)c2cc(NC(=O)/C=C/c3ccc(SC)cc3)ccc2n1
2 nM	Nc1cc(C2CCC2)nc2ccc(NC(=O)/C=C/c3ccc(C(F)(F)F)cc3)cc12
95 nM	CCCc1cc(N)c2cc(NC(=O)/C=C/c3ccc(OC(C)=O)cc3)ccc2n1
18.5 nM	Nc1cc(-c2ccccc2)nc2ccc(NC(=O)/C=C/c3ccc(Cl)cc3)cc12
1.4 nM	CCCc1cc(N)c2cc(NC(=O)/C=C/c3ccc(CC)cc3)ccc2n1
2.8 nM	CCCc1cc(N2CCC2)c2cc(NC(=O)/C=C/c3ccc(C(F)(F)F)cc3)ccc2n1
4.5 nM	CCCc1cc(N)c2cc(NC(=O)c3ccc(-c4ccc(C(F)(F)F)cc4)cc3)ccc2n1
1.2 nM	Nc1cc(C2CCCCC2)nc2ccc(NC(=O)/C=C/c3ccc(C(F)(F)F)cc3)cc12
6 nM	CCCc1cc(N)c2cc(NC(=O)/C=C/c3ccc(Cl)cc3)ccc2n1
2.1 nM	CC(C)c1cc(N)c2cc(NC(=O)/C=C/c3ccc(C(F)(F)F)cc3)ccc2n1
1.2 nM	CCc1cc(N)c2cc(NC(=O)/C=C/c3ccc(C(F)(F)F)cc3)ccc2n1
20 nM	CCCc1cc(N)c2cc(NC(=O)/C=C/c3ccc([N+](=O)[O-])cc3)ccc2n1
2 nM	CCCc1cc(N)c2cc(NC(=O)/C=C/c3ccc(C(F)(F)F)cc3)ccc2n1 (stereo in doubt; form 2)
1.3 nM	CCCc1cc(N)c2cc(NC(=O)/C=C/c3ccc(C(F)(F)F)cc3)ccc2n1 (stereo in doubt; form 3)
4 nM	CCCc1ccc(/C=C/C(=O)Nc2ccc3nc(CCC)cc(N)c3c2)cc1
2.9 nM	CCCc1cc(N)c2cc(NC(=O)/C=C/c3ccc(C(C)C)cc3)ccc2n1

IC50	Compound
1.2 nM	CCCCCc1cc(N)c2cc(NC(=O)/C=C/c3ccc(C(F)(F)F)cc3)ccc2n1
1.1 nM	CCCc1cc(N)c2cc(NC(=O)/C=C/c3ccc(-c4ccccc4)cc3)ccc2n1
17 nM	CCCc1cc(N2CCCC2)c2cc(NC(=O)/C=C/c3ccc(C(F)(F)F)cc3)ccc2n1
8 nM	Cc1cc(N)c2cc(NC(=O)/C=C/c3ccc(C(F)(F)F)cc3)ccc2n1
18 nM	CCCc1cc(NC2CCC2)c2cc(NC(=O)/C=C/c3ccc(C(F)(F)F)cc3)ccc2n1
38 nM	CCCc1cc(N)c2cc(NC(=O)NCc3ccc(C(F)(F)F)cc3)ccc2n1
0.8 nM	Nc1cc(C2CCCC2)nc2ccc(NC(=O)/C=C/c3ccc(C(F)(F)F)cc3)cc12
45 nM	CCCCc1ccc(/C=C/C(=O)Nc2ccc3nc(CCC)cc(N)c3c2)cc1
2.3 nM	CCCc1cc(N)c2cc(NC(=O)/C=C/c3ccc(I)cc3)ccc2n1
0.3 nM	CCC(C)c1cc(N)c2cc(NC(=O)/C=C/c3ccc(C(F)(F)F)cc3)ccc2n1 (stereo unspecified)
180 nM	CCCc1cc(N)c2cc(NCCCc3ccc(C(F)(F)F)cc3)ccc2n1
26 nM	CCCc1cc(OC)c2cc(NC(=O)/C=C/c3ccc(C(F)(F)F)cc3)ccc2n1
0.3 nM	CC(C)(C)c1cc(N)c2cc(NC(=O)/C=C/c3ccc(C(F)(F)F)cc3)ccc2n1
6.6 nM	CCCc1cc(N)c2cc(NC(=O)/C=C/c3ccc(Cl)cc3Cl)ccc2n1
43 nM	CCCc1cc(N(C)C)c2cc(NC(=O)/C=C/c3ccc(C(F)(F)F)cc3)ccc2n1

Molecular target: T2, Melanin-concentrating hormone receptor 2 (Homo sapiens, UniProt Q969V1)
Assay: Inhibition of 125I-[Phe13,Tyr19]-MCH binding to human MCH-R2 at 2uM

T2 sequence (Q969V1 whole entry): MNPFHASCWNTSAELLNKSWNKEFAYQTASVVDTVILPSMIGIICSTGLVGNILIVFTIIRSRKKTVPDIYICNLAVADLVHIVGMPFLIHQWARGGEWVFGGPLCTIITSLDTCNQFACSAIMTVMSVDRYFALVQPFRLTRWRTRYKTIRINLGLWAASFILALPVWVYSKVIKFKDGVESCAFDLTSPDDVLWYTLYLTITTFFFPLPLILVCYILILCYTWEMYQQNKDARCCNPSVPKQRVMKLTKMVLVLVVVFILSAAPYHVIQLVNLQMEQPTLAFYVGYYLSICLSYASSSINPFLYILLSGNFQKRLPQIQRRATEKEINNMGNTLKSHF

inhibition	Compound
< 50%	CCCc1cc(N)c2cc(NC(=O)/C=C/c3ccc(SC)cc3)ccc2n1
< 50%	Nc1cc(C2CCC2)nc2ccc(NC(=O)/C=C/c3ccc(C(F)(F)F)cc3)cc12
< 50%	CCCc1cc(N)c2cc(NC(=O)/C=C/c3ccc(OC(C)=O)cc3)ccc2n1
< 50%	Nc1cc(-c2ccccc2)nc2ccc(NC(=O)/C=C/c3ccc(Cl)cc3)cc12
< 50%	CCCc1cc(N)c2cc(NC(=O)/C=C/c3ccc(CC)cc3)ccc2n1
< 50%	CCCc1cc(N2CCC2)c2cc(NC(=O)/C=C/c3ccc(C(F)(F)F)cc3)ccc2n1
< 50%	CCCc1cc(N)c2cc(NC(=O)c3ccc(-c4ccc(C(F)(F)F)cc4)cc3)ccc2n1
< 50%	Nc1cc(C2CCCCC2)nc2ccc(NC(=O)/C=C/c3ccc(C(F)(F)F)cc3)cc12
< 50%	CCCc1cc(N)c2cc(NC(=O)/C=C/c3ccc(Cl)cc3)ccc2n1
< 50%	CC(C)c1cc(N)c2cc(NC(=O)/C=C/c3ccc(C(F)(F)F)cc3)ccc2n1
< 50%	CCc1cc(N)c2cc(NC(=O)/C=C/c3ccc(C(F)(F)F)cc3)ccc2n1
< 50%	CCCc1cc(N)c2cc(NC(=O)/C=C/c3ccc([N+](=O)[O-])cc3)ccc2n1
< 50%	CCCc1ccc(/C=C/C(=O)Nc2ccc3nc(CCC)cc(N)c3c2)cc1
< 50%	CCCc1cc(N)c2cc(NC(=O)/C=C/c3ccc(C(C)C)cc3)ccc2n1
< 50%	CCCCCc1cc(N)c2cc(NC(=O)/C=C/c3ccc(C(F)(F)F)cc3)ccc2n1
< 50%	CCCc1cc(N)c2cc(NC(=O)/C=C/c3ccc(-c4ccccc4)cc3)ccc2n1
< 50%	CCCc1cc(N2CCCC2)c2cc(NC(=O)/C=C/c3ccc(C(F)(F)F)cc3)ccc2n1
< 50%	Cc1cc(N)c2cc(NC(=O)/C=C/c3ccc(C(F)(F)F)cc3)ccc2n1
< 50%	CCCc1cc(N)c2cc(NC(=O)NCc3ccc(C(F)(F)F)cc3)ccc2n1
< 50%	Nc1cc(C2CCCC2)nc2ccc(NC(=O)/C=C/c3ccc(C(F)(F)F)cc3)cc12
< 50%	CCCCc1ccc(/C=C/C(=O)Nc2ccc3nc(CCC)cc(N)c3c2)cc1
< 50%	CCCc1cc(N)c2cc(NC(=O)/C=C/c3ccc(I)cc3)ccc2n1
< 50%	CCC(C)c1cc(N)c2cc(NC(=O)/C=C/c3ccc(C(F)(F)F)cc3)ccc2n1 (stereo unspecified)
< 50%	CCCc1cc(N)c2cc(NCCCc3ccc(C(F)(F)F)cc3)ccc2n1
< 50%	CCCc1cc(OC)c2cc(NC(=O)/C=C/c3ccc(C(F)(F)F)cc3)ccc2n1
< 50%	CC(C)(C)c1cc(N)c2cc(NC(=O)/C=C/c3ccc(C(F)(F)F)cc3)ccc2n1
< 50%	CCCc1cc(N)c2cc(NC(=O)/C=C/c3ccc(Cl)cc3Cl)ccc2n1
< 50%	CCCc1cc(N(C)C)c2cc(NC(=O)/C=C/c3ccc(C(F)(F)F)cc3)ccc2n1

Molecular target: T2, Melanin-concentrating hormone receptor 2
Assay: Displacement of 125I-[Phe13,Tyr19]-MCH from human MCH-R2

IC50	Compound
960 nM	CCCc1cc(NC2CCC2)c2cc(NC(=O)/C=C/c3ccc(C(F)(F)F)cc3)ccc2n1

Source: ChEMBL document CHEMBL1137266, “4-Aminoquinoline melanin-concentrating hormone 1-receptor (MCH1R) antagonists” (Bioorg Med Chem Lett, 2006)
